According to PubChem BioAssay (NCI):
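Protocol summary: plate cells (96-well), add compound at 5 concentrations, incubate 48 h, interpolate endpoints linearly. TGI marks complete inhibition of growth.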

Key:
Experiment in all cases: NCI anticancer screen, dose series, 48 h
786-0 renal = system: 786-0 renal
A498 renal = system: A498 renal
ACHN renal = system: ACHN renal
CAKI-1 renal = system: CAKI-1 renal
CCRF-CEM leukemia = system: CCRF-CEM leukemia
DU-145 prostate = system: DU-145 prostate
EKVX NSCLC = system: EKVX NSCLC
HCC-2998 colon = system: HCC-2998 colon
HCT-116 colon = system: HCT-116 colon
HCT-15 colon = system: HCT-15 colon
HL-60(TB) leukemia = system: HL-60(TB) leukemia
HOP-62 NSCLC = system: HOP-62 NSCLC
HOP-92 NSCLC = system: HOP-92 NSCLC
HS 578T breast = system: HS 578T breast
HT29 colon = system: HT29 colon
IGROV1 ovarian = system: IGROV1 ovarian
K-562 leukemia = system: K-562 leukemia
KM12 colon = system: KM12 colon
LOX IMVI melanoma = system: LOX IMVI melanoma
M14 melanoma = system: M14 melanoma
MCF7 breast = system: MCF7 breast
MDA-MB-231 breast = system: MDA-MB-231 breast
MDA-MB-435 = system: MDA-MB-435
MDA-N = system: MDA-N
MOLT-4 leukemia = system: MOLT-4 leukemia
NCI-H226 lung = system: NCI-H226 lung
NCI-H23 lung = system: NCI-H23 lung
NCI-H460 lung = system: NCI-H460 lung
NCI-H522 lung = system: NCI-H522 lung
NCI/ADR-RES ovarian = system: NCI/ADR-RES ovarian
OVCAR-3 ovarian = system: OVCAR-3 ovarian
OVCAR-4 ovarian = system: OVCAR-4 ovarian
OVCAR-5 ovarian = system: OVCAR-5 ovarian
OVCAR-8 ovarian = system: OVCAR-8 ovarian
PC-3 prostate = system: PC-3 prostate
RPMI-8226 leukemia = system: RPMI-8226 leukemia
RXF 393 renal = system: RXF 393 renal
SF-268 CNS = system: SF-268 CNS
SF-295 CNS = system: SF-295 CNS
SF-539 CNS = system: SF-539 CNS
SK-MEL-2 melanoma = system: SK-MEL-2 melanoma
SK-MEL-28 melanoma = system: SK-MEL-28 melanoma
SK-MEL-5 melanoma = system: SK-MEL-5 melanoma
SK-OV-3 ovarian = system: SK-OV-3 ovarian
SR leukemia = system: SR leukemia
SW-620 colon = system: SW-620 colon
T-47D breast = system: T-47D breast
TK-10 renal = system: TK-10 renal
U251 CNS = system: U251 CNS
UACC-257 melanoma = system: UACC-257 melanoma
UO-31 renal = system: UO-31 renal
BT-549 breast = system: BT-549 breast
COLO 205 colon = system: COLO 205 colon
MALME-3M melanoma = system: MALME-3M melanoma
SN12C renal = system: SN12C renal
SNB-19 CNS = system: SNB-19 CNS
SNB-75 CNS = system: SNB-75 CNS
UACC-62 melanoma = system: UACC-62 melanoma
A549 NSCLC = system: A549 NSCLC

`CC1=NN(c2nc(N)nc(-c3ccccc3S(N)(=O)=O)n2)C(C)(C)C1` was tested, and the TGI (786-0 renal) was > 100 µM, the TGI (A498 renal) was 64.5 µM and the TGI (ACHN renal) was 82.1 µM. For the same molecule, the TGI (CAKI-1 renal) was > 100 µM, the TGI (CCRF-CEM leukemia) was > 100 µM and the TGI (DU-145 prostate) was > 100 µM. The TGI (EKVX NSCLC) was > 100 µM, the TGI (HCC-2998 colon) was > 100 µM and the TGI (HCT-116 colon) was > 100 µM. The TGI (HCT-15 colon) was > 100 µM, the TGI (HL-60(TB) leukemia) was 41.2 µM and the TGI (HOP-62 NSCLC) was > 100 µM. For the same molecule, the TGI (HOP-92 NSCLC) was > 100 µM, the TGI (HS 578T breast) was > 100 µM and the TGI (HT29 colon) was > 100 µM. The TGI (IGROV1 ovarian) was > 100 µM, the TGI (K-562 leukemia) was > 100 µM and the TGI (KM12 colon) was > 100 µM. The TGI (LOX IMVI melanoma) was > 100 µM, the TGI (M14 melanoma) was 87.2 µM and the TGI (MCF7 breast) was > 100 µM. For the same molecule, the TGI (MDA-MB-231 breast) was > 100 µM, the TGI (MDA-MB-435) was > 100 µM and the TGI (MDA-N) was > 100 µM. For the same molecule, the TGI (MOLT-4 leukemia) was 79.8 µM, the TGI (NCI-H226 lung) was > 100 µM and the TGI (NCI-H23 lung) was > 100 µM. For the same molecule, the TGI (NCI-H460 lung) was > 100 µM, the TGI (NCI-H522 lung) was > 100 µM and the TGI (NCI/ADR-RES ovarian) was 52.5 µM. For the same molecule, the TGI (OVCAR-3 ovarian) was > 100 µM, the TGI (OVCAR-4 ovarian) was > 100 µM and the TGI (OVCAR-5 ovarian) was > 100 µM. For the same molecule, the TGI (OVCAR-8 ovarian) was > 100 µM, the TGI (PC-3 prostate) was > 100 µM and the TGI (RPMI-8226 leukemia) was > 100 µM. The TGI (RXF 393 renal) was > 100 µM, the TGI (SF-268 CNS) was > 100 µM and the TGI (SF-295 CNS) was > 100 µM. For the same molecule, the TGI (SF-539 CNS) was > 100 µM, the TGI (SK-MEL-2 melanoma) was 57 µM and the TGI (SK-MEL-28 melanoma) was > 100 µM. For the same molecule, the TGI (SK-MEL-5 melanoma) was > 100 µM, the TGI (SK-OV-3 ovarian) was > 100 µM and the TGI (SR leukemia) was 68.5 µM. The TGI (SW-620 colon) was > 100 µM, the TGI (T-47D breast) was > 100 µM and the TGI (TK-10 renal) was > 100 µM. The TGI (U251 CNS) was > 100 µM, the TGI (UACC-257 melanoma) was > 100 µM and the TGI (UO-31 renal) was > 100 µM.
With `Cc1ccc(C2CC(=O)CC(c3ccc(C)cc3)C23C(=O)NC(=O)NC3=O)cc1` (stereo not given) the TGI (786-0 renal) was > 100 µM, the TGI (ACHN renal) was > 100 µM and the TGI (BT-549 breast) was > 100 µM. The TGI (CAKI-1 renal) was > 100 µM, the TGI (CCRF-CEM leukemia) was > 100 µM and the TGI (COLO 205 colon) was > 100 µM. The TGI (DU-145 prostate) was > 100 µM, the TGI (EKVX NSCLC) was > 100 µM and the TGI (HCC-2998 colon) was > 100 µM. The TGI (HCT-116 colon) was > 100 µM, the TGI (HCT-15 colon) was > 100 µM and the TGI (HOP-62 NSCLC) was > 100 µM. The TGI (HOP-92 NSCLC) was > 100 µM, the TGI (HT29 colon) was > 100 µM and the TGI (IGROV1 ovarian) was > 100 µM. For the same molecule, the TGI (K-562 leukemia) was > 100 µM, the TGI (KM12 colon) was > 100 µM and the TGI (LOX IMVI melanoma) was > 100 µM. For the same molecule, the TGI (M14 melanoma) was > 100 µM, the TGI (MALME-3M melanoma) was > 100 µM and the TGI (MCF7 breast) was > 100 µM. For the same molecule, the TGI (MDA-MB-231 breast) was > 100 µM, the TGI (MDA-MB-435) was > 100 µM and the TGI (MDA-N) was > 100 µM. For the same molecule, the TGI (MOLT-4 leukemia) was > 100 µM, the TGI (NCI-H226 lung) was > 100 µM and the TGI (NCI-H23 lung) was > 100 µM. For the same molecule, the TGI (NCI-H460 lung) was > 100 µM, the TGI (NCI-H522 lung) was > 100 µM and the TGI (NCI/ADR-RES ovarian) was > 100 µM. The TGI (OVCAR-3 ovarian) was > 100 µM, the TGI (OVCAR-4 ovarian) was > 100 µM and the TGI (OVCAR-5 ovarian) was > 100 µM. The TGI (OVCAR-8 ovarian) was > 100 µM, the TGI (PC-3 prostate) was > 100 µM and the TGI (RPMI-8226 leukemia) was > 100 µM. For the same molecule, the TGI (RXF 393 renal) was > 100 µM, the TGI (SF-268 CNS) was > 100 µM and the TGI (SF-295 CNS) was > 100 µM. For the same molecule, the TGI (SF-539 CNS) was > 100 µM, the TGI (SK-MEL-2 melanoma) was > 100 µM and the TGI (SK-MEL-28 melanoma) was > 100 µM. The TGI (SK-MEL-5 melanoma) was > 100 µM, the TGI (SN12C renal) was > 100 µM and the TGI (SNB-19 CNS) was > 100 µM. The TGI (SNB-75 CNS) was > 100 µM, the TGI (SR leukemia) was > 100 µM and the TGI (SW-620 colon) was > 100 µM. The TGI (T-47D breast) was > 100 µM, the TGI (TK-10 renal) was > 100 µM and the TGI (U251 CNS) was > 100 µM. The TGI (UACC-257 melanoma) was > 100 µM, the TGI (UACC-62 melanoma) was > 100 µM and the TGI (UO-31 renal) was > 100 µM.
In the case of `O=C(Cn1c(=O)oc2ccc(C(=O)c3ccc(F)cc3)cc21)c1ccc([N+](=O)[O-])cc1`, the TGI (786-0 renal) is reported as > 100 µM, the TGI (A498 renal) is reported as > 100 µM and the TGI (A549 NSCLC) is reported as > 100 µM. The TGI (ACHN renal) was > 100 µM, the TGI (CAKI-1 renal) was > 100 µM and the TGI (CCRF-CEM leukemia) was > 100 µM. For the same molecule, the TGI (COLO 205 colon) was > 100 µM, the TGI (DU-145 prostate) was > 100 µM and the TGI (HCC-2998 colon) was 37.9 µM. The TGI (HCT-116 colon) was > 100 µM, the TGI (HCT-15 colon) was > 100 µM and the TGI (HL-60(TB) leukemia) was 60 µM. For the same molecule, the TGI (HOP-62 NSCLC) was > 100 µM, the TGI (HOP-92 NSCLC) was > 100 µM and the TGI (HS 578T breast) was 53.5 µM. The TGI (HT29 colon) was > 100 µM, the TGI (IGROV1 ovarian) was 78.3 µM and the TGI (K-562 leukemia) was > 100 µM. For the same molecule, the TGI (KM12 colon) was 87 µM, the TGI (LOX IMVI melanoma) was > 100 µM and the TGI (M14 melanoma) was > 100 µM. For the same molecule, the TGI (MALME-3M melanoma) was > 100 µM, the TGI (MCF7 breast) was > 100 µM and the TGI (MDA-MB-231 breast) was > 100 µM. The TGI (MDA-MB-435) was 72.9 µM, the TGI (MDA-N) was 60.9 µM and the TGI (MOLT-4 leukemia) was > 100 µM. For the same molecule, the TGI (NCI-H226 lung) was > 100 µM, the TGI (NCI-H23 lung) was > 100 µM and the TGI (NCI-H460 lung) was > 100 µM. The TGI (NCI-H522 lung) was 80.4 µM, the TGI (NCI/ADR-RES ovarian) was > 100 µM and the TGI (OVCAR-4 ovarian) was > 100 µM. The TGI (OVCAR-5 ovarian) was > 100 µM, the TGI (OVCAR-8 ovarian) was > 100 µM and the TGI (PC-3 prostate) was 85.9 µM. The TGI (RPMI-8226 leukemia) was > 100 µM, the TGI (RXF 393 renal) was > 100 µM and the TGI (SF-268 CNS) was > 100 µM. For the same molecule, the TGI (SF-539 CNS) was > 100 µM, the TGI (SK-MEL-2 melanoma) was 86.2 µM and the TGI (SK-MEL-28 melanoma) was > 100 µM. For the same molecule, the TGI (SK-MEL-5 melanoma) was 34 µM, the TGI (SK-OV-3 ovarian) was > 100 µM and the TGI (SN12C renal) was > 100 µM. The TGI (SNB-19 CNS) was > 100 µM, the TGI (SNB-75 CNS) was > 100 µM and the TGI (SR leukemia) was > 100 µM. For the same molecule, the TGI (SW-620 colon) was > 100 µM, the TGI (T-47D breast) was > 100 µM and the TGI (TK-10 renal) was > 100 µM. For the same molecule, the TGI (U251 CNS) was > 100 µM, the TGI (UACC-257 melanoma) was > 100 µM and the TGI (UACC-62 melanoma) was > 100 µM. For the same molecule, the TGI (UO-31 renal) was 84.4 µM.
